Reference: patent US11673892B2, “Bicyclic compounds for use as RIP1 kinase inhibitors” (Genentech, Inc., priority 2017, dated 2023)

The compounds below were run against T1, human RIP1 kinase domain (2-375) (Homo sapiens, UniProt Q13546) (assay: RIP1 kinase inhibition biochemical assay (Transcreener ADP, fluorescence polarization)). Details: Ki app (Morrison tight-binding fit); 50 nM enzyme, 50 uM ATP, 2 hours incubation.
T1 construct: Purified human RIP1 kinase domain (2-375) (50 nM); made in house; host or cells: baculovirus-infected insect cells
T1 sequence (Q13546 2-375): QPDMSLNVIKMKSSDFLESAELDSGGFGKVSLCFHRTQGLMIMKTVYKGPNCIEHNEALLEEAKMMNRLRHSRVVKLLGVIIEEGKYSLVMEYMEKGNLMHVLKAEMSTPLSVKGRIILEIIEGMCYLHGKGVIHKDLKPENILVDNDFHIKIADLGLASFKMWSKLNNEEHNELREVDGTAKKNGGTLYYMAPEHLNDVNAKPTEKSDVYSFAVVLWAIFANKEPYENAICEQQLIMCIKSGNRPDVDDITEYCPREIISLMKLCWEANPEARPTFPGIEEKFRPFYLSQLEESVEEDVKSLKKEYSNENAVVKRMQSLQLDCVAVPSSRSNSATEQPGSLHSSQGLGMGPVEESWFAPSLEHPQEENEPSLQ
Description: RIP1 Kinase Inhibition Assays (Biochemical Assay)
The compounds of the present invention were tested for their capacity to inhibit RIP1K activity as described below.
The ability of the receptor interacting protein kinase (RIPK1) to catalyze the hydrolysis of adenosine-5′-triphosphate (ATP) is monitored using the Transcreener ADP (adenosine-5′-diphosphate) assay (BellBrook Labs). Purified human RIP1 kinase domain (2-375) (50 nM) derived from a baculovirus-infected insect cell expression system is incubated with test compounds for 2 hours in 50 mM Hepes buffer (pH 7.5) containing 30 mM MgCl2, 1 mM dithiothreitol, 50 uM ATP, 0.002% Brij-35, and 0.5% dimethyl sulfoxide (DMSO). Reactions are quenched by the addition of 1× Bell Brooks Stop buffer B (20 mM Hepes (ph7.5), 40 mM ethylenediaminetetraacetic acid and 0.02% Brij-35) containing an additional 12 mM EDTA and 55 ug/mL ADP2 antibody and 4 nM ADP-AlexaFluor® 633 tracer. The tracer bound to the antibody is displaced by the ADP generated during the RIP1K reaction, which causes a decrease in fluorescence polarization that is measured by laser excitation at 633 nm with a FP microplate reader M1000. Fractional activity was plotted against test article concentration. Using Genedata Screener software (Genedata; Basel, Switzerland), the data were fit to the tight-binding apparent inhibition constant (Ki^app) Morrison equation [Williams, J. W. and Morrison, J. F. (1979) The kinetics of reversible tight-binding inhibition. Methods Enzymol 63: 437-67]. The following equation was used to calculate fractional activity and Ki^app:
[formula] where [E]T and [I]T are the total concentrations of active enzyme and test article, respectively.
Exemplary compounds of the present invention are provided in Table 1 along with their physiochemical characterization and in vitro RIP1 kinase inhibitory activity data. “Method” in the first column of each table refers to the synthetic method(s) used to prepare each compound as shown in the Examples above. In certain examples, chiral column retention times (min) are provided for certain stereoisomers. Unless otherwise specified, the stereochemistry shown in each structure represents relative configuration of a single stereoisomer, and absolute configuration (i.e., “R” and/or “S”) is arbitrarily assigned. In some embodiments, where the Method is described to include the separation of stereoisomers, a single stereoisomer of a compound of Table 1 is provided.

| SMILES | Ki [nM] |
| --- | --- |
| CCOC(=O)[C@@H]1C[C@H]1c1nc2n(n1)[C@H](c1ccccc1)C[C@@H]2F (mixture of isomers) [Example 21, ethyl rac-(1R,2R)-2-[(5S,7S)-7-fluoro-5-phenyl-6,7-dihydro-5H-pyrrolo[1,2-b][1,2,4]triazol-2-yl]cyclopropanecarboxylate] | 100 |
| CC(C)(C)C(F)(F)c1nc2n(n1)C(c1ccccc1)CC2F (racemic) [Example 9, Cis-2-(1,1-difluoro-2,2-dimethyl-propyl)-7-fluoro-5-phenyl-6,7-dihydro-5H-pyrrolo[1,2-b][1,2,4]triazole] | 68 |
| CCCc1nc2n(n1)[C@@H](c1ccccc1)C[C@H]2F (racemic) [Example 10, Cis-(5S,7S)-7-fluoro-5-phenyl-2-propyl-6,7-dihydro-5H-pyrrolo[1,2-b][1,2,4]triazole] | 78 |
| FC1CC(c2ccccc2)n2nc(C3CC3)nc21 (racemic) [Example 11, Cis-2-cyclopropyl-7-fluoro-5-phenyl-6,7-dihydro-5H-pyrrolo[1,2-b][1,2,4]triazole] | 320 |
| FC1CC(c2ccccc2)n2nc(C(F)(F)F)nc21 (racemic) [Example 12, Cis-7-fluoro-5-phenyl-2-(trifluoromethyl)-6,7-dihydro-5H-pyrrolo[1,2-b][1,2,4]triazole] | 130 |
| N#CC1CC1c1nc2n(n1)[C@H](c1ccccc1)C[C@@H]2F (mixture of isomers) [Example 16, Trans-2-[(5S,7S)-7-fluoro-5-phenyl-6,7-dihydro-5H-pyrrolo[1,2-b][1,2,4]triazol-2-yl]cyclopropanecarbonitrile] | 51 |
| COC[C@@H]1C[C@H]1c1nc2n(n1)[C@H](c1ccccc1)C[C@@H]2F (racemic) [Example 24, (S,7S)-7-fluoro-5-phenyl-2-[rac-(1R,2R)-2-(methoxymethyl)cyclopropyl]-6,7-dihydro-5H-pyrrolo[1,2-b][1,2,4]triazole] | 910 |
| N#CCOCc1nc2n(n1)[C@H](c1ccccc1)C[C@@H]2F (racemic) [Example 51, 2-[(7-fluoro-5-phenyl-6,7-dihydro-5H-pyrrolo[1,2-b][1,2,4]triazol-2-yl)methoxy]acetonitrile] | 120 |
| N#CC1CC(=Cc2nc3n(n2)[C@H](c2ccccc2)C[C@@H]3F)C1 (mixture of isomers) [Example 55, 3-[[rac-(5S,7S)-7-fluoro-5-phenyl-6,7-dihydro-5H-pyrrolo[1,2-b][1,2,4]triazol-2-yl]methylene]cyclobutanecarbonitrile] | 130 |
| CC(=O)c1cnn(-c2nc3n(n2)[C@H](c2ccccc2)C[C@@H]3F)c1 (racemic) [Example 78, 1-[1-[rac-(5S,7S)-7-fluoro-5-phenyl-6,7-dihydro-5H-pyrrolo[1,2-b][1,2,4]triazol-2-yl]pyrazol-4-yl]ethanone] | 130 |
| F[C@H]1C[C@@H](c2ccccc2)n2nc(-n3ncc4ccncc43)nc21 (racemic) [Example 87, 1-[rac-(5S,7S)-7-fluoro-5-phenyl-6,7-dihydro-5H-pyrrolo[1,2-b][1,2,4]triazol-2-yl]pyrazolo[3,4-c]pyridine] | 160 |
| N#CCc1nc2n(n1)[C@H](c1ccccc1)C[C@@H]2F (racemic) [Example 102, 2-[rac-(5S,7S)-7-fluoro-5-phenyl-6,7-dihydro-5H-pyrrolo[1,2-b][1,2,4]triazol-2-yl]acetonitrile] | 730 |
| CC(C)(C#N)c1nc2n(n1)[C@H](c1ccccc1)C[C@@H]2F (racemic) [Example 103, 2-[rac-(5S,7S)-7-fluoro-5-phenyl-6,7-dihydro-5H-pyrrolo[1,2-b][1,2,4]triazol-2-yl]-2-methyl-propanenitrile] | 220 |
| F[C@@H]1C[C@H](c2ccccc2)n2nc(CCC(F)(F)F)nc21 (single isomer, unassigned) [Example 15] | 1100 |

Now those with a lower Ki, led by results:

| Ki [nM] | SMILES |
| --- | --- |
| 45 | Cc1ccc2c(c1)nnn2-c1nc2n(n1)[C@H](c1ccccc1)C[C@@H]2F (racemic) [Example 88, 5-methyl-1-[rac-(5S,7S)-7-fluoro-5-phenyl-6,7-dihydro-5H-pyrrolo[1,2-b][1,2,4]triazol-2-yl]benzotriazole] |
| 41 | CCC(F)(F)c1nc2n(n1)C(c1ccccc1)CC2F (racemic) [Example 2, Cis-2-(1,1-difluoropropyl)-7-fluoro-5-phenyl-6,7-dihydro-5H-pyrrolo[1,2-b][1,2,4]triazole] |
| 34 | CC1(C(F)(F)c2nc3n(n2)[C@H](c2ccccc2)C[C@@H]3F)COC1 (single isomer, unassigned) [Example 17] |
| 28 | CCCc1nc2n(n1)[C@H](c1ccccc1)C[C@@H]2F (single isomer, unassigned) [Example 14] |
| 27 | F[C@@H]1C[C@H](c2ccccc2)n2nc(C(F)(F)C3CC3)nc21 (racemic) [Example 5] |
| 19 | N#Cc1ccc2c(c1)nnn2-c1nc2n(n1)[C@H](c1ccccc1)C[C@@H]2F (racemic) [Example 85, 1-[rac-(5S,7S)-7-fluoro-5-phenyl-6,7-dihydro-5H-pyrrolo[1,2-b][1,2,4]triazol-2-yl]benzotriazole-5-carbonitrile] |
| 18 | F[C@H]1C[C@@H](c2ccccc2)n2nc(-n3nnc4c3CCCC4)nc21 (racemic) [Example 86, 1-(rac-(5S,7S)-7-fluoro-5-phenyl-6,7-dihydro-5H-pyrrolo[1,2-b][1,2,4]triazol-2-yl]-4,5,6,7-tetrahydrobenzotriazole] |
| 14 | CC[C@H](F)c1nc2n(n1)[C@H](c1ccccc1)C[C@@H]2F (racemic) [Example 8, rac-(5S,7S)-7-fluoro-5-phenyl-2-[rac-(1S)-1-fluoropropyl]-6,7-dihydro-5H-pyrrolo[1,2-b][1,2,4]triazole] |
| 9.2 | F[C@H]1C[C@@H](c2ccccc2)n2nc(-n3nnc4cc(Cl)ccc43)nc21 (racemic) [Example 82, 5-chloro-1-[rac-(5S,7S)-7-fluoro-5-phenyl-6,7-dihydro-5H-pyrrolo[1,2-b][1,2,4]triazol-2-yl]benzotriazole] |
| 6.2 | F[C@H]1C[C@@H](c2ccccc2)n2nc(-n3ncc4ccccc43)nc21 (racemic) [Example 73, 1-[rac-(5S,7S)-7-fluoro-5-phenyl-6,7-dihydro-5H-pyrrolo[1,2-b][1,2,4]triazol-2-yl]indazole] |
| 4.8 | N#C[C@H]1C[C@@H]1C(F)(F)c1nc2n(n1)[C@H](c1ccccc1)C[C@@H]2F (mixture of isomers) [Example 113, rac-(1S,2S)-2-[difluoro-[(5S,7S)-7-fluoro-5-phenyl-6,7-dihydro-5H-pyrrolo[1,2-b][1,2,4]triazol-2-yl]methyl]cyclopropane carbonitrile] |
| 4 | CC[C@@H](F)c1nc2n(n1)[C@H](c1ccccc1)C[C@@H]2F (racemic) [Example 7, rac-(5S,7S)-7-fluoro-5-phenyl-2-[rac-(1R)-1-fluoropropyl]-6,7-dihydro-5H-pyrrolo[1,2-b][1,2,4]triazole] |
| 4 | F[C@@H]1C[C@H]1C(F)(F)c1nc2n(n1)[C@H](c1ccccc1)C[C@@H]2F (racemic) [Example 23, (5S,7S)-2-[difluoro-(rac-(1R,2R)-2-fluorocyclopropyl)methyl])-7-fluoro-5-phenyl-6,7-dihydro-5H-pyrrolo[1,2-b][1,2,4]triazole] |
| 3 | F[C@H]1C[C@@H](c2ccccc2)n2nc(C(F)(F)C3CC3)nc21 (single isomer, unassigned) [Example 13] |
